Assay results: US10988477B2 (Merck Patent GmbH, priority 2018, dated 2021)

How the values were obtained:
GCN2 kinase = GCN2 kinase (Homo sapiens, UniProt Q9P2K8); experiment: GCN2 enzyme inhibition assay (Transcreener ADP2 fluorescence polarization); type: biochemical; conditions: Enzyme activity for compounds of Formula IV; Ki(app), 280 μM ATP, 25° C.
Outline: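 Inhibition of 4 nM GCN2 was measured with compound up to 8 μM final, ATP 280 μM and (RS)7 peptide 200 μM over a 1 h, 25 °C reaction. ADP FP readout; IC50 and Ki(app) calculated from percent inhibition.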

[1] = target: intracellular GCN2 (phosphorylation of the GCN2 substrate eIF2α) (Homo sapiens, UniProt Q9P2K8); experiment: GCN2 cellular inhibition assay (AlphaScreen SureFire P-eIF2α Ser51, borrelidin-treated U2OS cells); type: cell-based; conditions: compounds of Formula IV; biomarker assay, phosphorylated eIF2α Ser51 in borrelidin-treated U2OS cells
Sequence of intracellular GCN2 (phosphorylation of the GCN2 substrate eIF2α) (Q9P2K8 whole entry): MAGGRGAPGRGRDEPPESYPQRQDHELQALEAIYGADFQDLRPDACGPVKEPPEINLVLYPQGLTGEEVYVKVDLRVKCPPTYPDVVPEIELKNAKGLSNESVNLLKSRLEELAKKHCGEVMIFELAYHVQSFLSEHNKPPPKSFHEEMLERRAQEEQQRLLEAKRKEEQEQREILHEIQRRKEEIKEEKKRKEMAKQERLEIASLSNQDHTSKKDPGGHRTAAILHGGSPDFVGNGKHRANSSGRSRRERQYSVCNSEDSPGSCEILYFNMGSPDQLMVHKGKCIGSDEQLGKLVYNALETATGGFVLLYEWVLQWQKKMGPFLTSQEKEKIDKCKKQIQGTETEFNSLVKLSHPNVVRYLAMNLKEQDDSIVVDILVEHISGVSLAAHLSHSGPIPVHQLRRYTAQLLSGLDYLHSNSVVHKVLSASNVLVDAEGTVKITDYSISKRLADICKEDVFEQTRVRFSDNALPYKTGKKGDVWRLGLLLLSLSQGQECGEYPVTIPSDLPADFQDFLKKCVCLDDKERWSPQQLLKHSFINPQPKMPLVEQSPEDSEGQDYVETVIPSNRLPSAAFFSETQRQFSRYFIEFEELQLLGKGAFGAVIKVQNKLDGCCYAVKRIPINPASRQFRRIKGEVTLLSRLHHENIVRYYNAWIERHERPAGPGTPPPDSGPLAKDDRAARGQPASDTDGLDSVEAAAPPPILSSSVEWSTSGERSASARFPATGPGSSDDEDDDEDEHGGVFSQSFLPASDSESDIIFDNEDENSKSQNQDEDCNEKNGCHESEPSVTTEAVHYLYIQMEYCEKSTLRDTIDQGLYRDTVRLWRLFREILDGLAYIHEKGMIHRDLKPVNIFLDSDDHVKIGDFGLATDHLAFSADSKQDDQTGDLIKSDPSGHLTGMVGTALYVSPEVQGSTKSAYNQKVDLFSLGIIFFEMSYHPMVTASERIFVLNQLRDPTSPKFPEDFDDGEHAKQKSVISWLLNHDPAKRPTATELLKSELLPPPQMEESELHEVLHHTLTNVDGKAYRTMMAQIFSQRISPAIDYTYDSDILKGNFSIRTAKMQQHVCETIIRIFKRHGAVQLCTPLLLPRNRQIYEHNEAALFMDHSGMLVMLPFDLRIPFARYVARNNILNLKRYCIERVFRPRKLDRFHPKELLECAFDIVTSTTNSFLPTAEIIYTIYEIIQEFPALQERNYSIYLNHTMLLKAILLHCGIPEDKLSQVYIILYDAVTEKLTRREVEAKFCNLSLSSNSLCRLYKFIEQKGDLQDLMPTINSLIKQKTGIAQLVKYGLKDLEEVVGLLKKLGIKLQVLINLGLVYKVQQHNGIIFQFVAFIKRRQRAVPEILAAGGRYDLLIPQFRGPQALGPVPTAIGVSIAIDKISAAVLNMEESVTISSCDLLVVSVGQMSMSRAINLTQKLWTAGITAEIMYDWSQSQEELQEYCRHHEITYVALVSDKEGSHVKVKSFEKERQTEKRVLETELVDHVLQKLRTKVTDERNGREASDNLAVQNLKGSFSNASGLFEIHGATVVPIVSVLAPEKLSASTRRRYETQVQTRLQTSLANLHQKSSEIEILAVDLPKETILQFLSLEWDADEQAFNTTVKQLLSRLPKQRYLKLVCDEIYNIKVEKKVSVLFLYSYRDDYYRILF
Outline: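 Borrelidin at 10 μM is added to U2OS cells immediately after compound (4-fold dilution series, 40 μM top final) for 1 h at 37 °C. Phosphorylated eIF2α Ser51 in lysates is quantified by AlphaScreen and expressed as percent inhibition against borrelidin-stimulated controls.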

Sequence of GCN2 kinase (Q9P2K8 whole entry): as above

| SMILES | Ki (GCN2 kinase) | IC50 [1] |
| --- | --- | --- |
| CC(=O)N1CCN(c2cccc(-c3cnc4cnc(-n5cccn5)cn34)n2)CC1 [IV-209, 1-(4-(6-(6-(1H-Pyrazol-1-yl)imidazo[1,2-a]pyrazin-3-yl)pyridin-2-yl)piperazin-1-yl)ethan-1-one] | < 10 nM | 500 to 5000 nM |
| NC(=O)c1cn2c(-c3cccc(N4CCN5C(=O)CCCC5C4)n3)cnc2cn1 (stereo not shown) [IV-210, 3-(6-(6-Oxooctahydro-2H-pyrido[1,2-a]pyrazin-2-yl)pyridin-2-yl)imidazo[1,2-a]pyrazine-6-carboxamide] | < 10 nM | 500 to 5000 nM |
| FC(F)(F)c1cn2c(-c3nccc(N4CCNC(c5cn[nH]c5)C4)n3)cnc2cn1 (stereo not shown) [IV-211, 3-(4-(3-(1H-Pyrazol-4-yl)piperazin-1-yl)pyrimidin-2-yl)-6-(trifluoromethyl)imidazo[1,2-a]pyrazine] | < 10 nM | 500 to 5000 nM |
| CC1CN(c2ccnc(-c3cnc4cnc(C(F)(F)F)cn34)n2)C(C)C(c2cn[nH]c2)N1 (stereo not shown) [IV-222, 3-(4-(2,5-Dimethyl-3-(1H-pyrazol-4-yl)piperazin-1-yl)pyrimidin-2-yl)-6-(trifluoromethyl)imidazo[1,2-a]pyrazine] | < 10 nM | < 500 nM |
| C[C@H]1CN(c2ccnc(-c3cnc4cnc(C(F)(F)F)cn34)n2)[C@@H](C)[C@@H](c2cn[nH]c2)N1 [IV-224, 3-(4-((2S,3R,5S)-2,5-dimethyl-3-(1H-pyrazol-4-yl)piperazin-1-yl)pyrimidin-2-yl)-6-(trifluoromethyl)imidazo[1,2-a]pyrazine] | < 10 nM | < 500 nM |
| NC(=O)c1cn2c(-c3cccc(-c4cccc5[nH]ccc45)n3)cnc2cn1 [IV-225, 3-(6-(1H-Indol-4-yl)pyridin-2-yl)imidazo[1,2-a]pyrazine-6-carboxamide] | 10 to 100 nM | 500 to 5000 nM |
| NC(=O)c1cn2c(-c3cccc(N4CCN5C(=O)CCC[C@H]5C4)n3)cnc2cn1 [IV-228, (S)-3-(6-(6-Oxooctahydro-2H-pyrido[1,2-a]pyrazin-2-yl)pyridin-2-yl)imidazo[1,2-a]pyrazine-6-carboxamide] | 10 to 100 nM | 500 to 5000 nM |
| N#Cc1cn2c(-c3cccc(-c4cccc5[nH]ccc45)n3)cnc2cn1 [IV-234, 3-(6-(1H-Indol-4-yl)pyridin-2-yl)imidazo[1,2-a]pyrazine-6-carbonitrile] | 10 to 100 nM | > 5000 nM |
| CC1CN(c2ccnc(-c3cnc4cnc(Br)cn34)n2)C(C)C(c2cn[nH]c2)N1 (stereo not shown) [IV-279, 6-Bromo-3-(4-(2,5-dimethyl-3-(1H-pyrazol-4-yl)piperazin-1-yl)pyrimidin-2-yl)imidazo[1,2-a]pyrazine] | < 10 nM | < 500 nM |
| CC1CN(c2ccnc(-c3cnc4cnc(C#N)cn34)n2)C(C)C(c2cn[nH]c2)N1 (stereo not shown) [IV-305, 3-(4-(2,5-Dimethyl-3-(1H-pyrazol-4-yl)piperazin-1-yl)pyrimidin-2-yl)imidazo[1,2-a]pyrazine-6-carbonitrile] | < 10 nM | 500 to 5000 nM |
| CC1NC(c2cn[nH]c2)C(C)N(c2ccnc(-c3cnc4cnc(C(F)(F)F)cn34)n2)C1C (stereo not shown) [IV-323, 6-(Trifluoromethyl)-3-(4-(2,3,6-trimethyl-5-(1H-pyrazol-4-yl)piperazin-1-yl)pyrimidin-2-yl)imidazo[1,2-a]pyrazine] | < 10 nM | 500 to 5000 nM |
| Brc1cn2c(-c3nccc(N4CCCC(c5c[nH]cn5)C4)n3)cnc2cn1 (stereo not shown) [IV-340, 3-(4-(3-(1H-Imidazol-4-yl)piperidin-1-yl)pyrimidin-2-yl)-6-bromoimidazo[1,2-a]pyrazine] | < 10 nM | 500 to 5000 nM |
| N#Cc1cn2c(-c3nccc(N4CCCC(c5c[nH]cn5)C4)n3)cnc2cn1 (stereo not shown) [IV-341, 3-(4-(3-(1H-Imidazol-4-yl)piperidin-1-yl)pyrimidin-2-yl)imidazo[1,2-a]pyrazine-6-carbonitrile] | 10 to 100 nM | > 5000 nM |
| Brc1cn2c(-c3nccc(N4CCCC(c5cn[nH]c5)C4)n3)cnc2cn1 (stereo not shown) [IV-346, 3-(4-(3-(1H-Pyrazol-4-yl)piperidin-1-yl)pyrimidin-2-yl)-6-bromoimidazo[1,2-a]pyrazine] | < 10 nM | < 500 nM |
| Clc1cn2c(-c3nccc(N4CCNC(c5c[nH]cn5)C4)n3)cnc2cn1 (stereo not shown) [IV-347, 3-(4-(3-(1H-Imidazol-4-yl)piperazin-1-yl)pyrimidin-2-yl)-6-chloroimidazo[1,2-a]pyrazine] | 100 to 1000 nM | > 5000 nM |
| CC1CN(c2ccnc(-c3cnc4cnc(Cl)cn34)n2)C(C)C(c2c[nH]cn2)N1 (stereo not shown) [IV-349, 3-(4-(3-(1H-Imidazol-4-yl)-2,5-dimethylpiperazin-1-yl)pyrimidin-2-yl)-6-chloroimidazo[1,2-a]pyrazine] | 10 to 100 nM | 500 to 5000 nM |

| SMILES | Ki (GCN2 kinase) | IC50 [1] |
| --- | --- | --- |
| CC1(C)CN(c2ccnc(-c3cnc4cnc(Cl)cn34)n2)CC(c2cn[nH]c2)N1 (stereo not shown) [IV-353, 6-Chloro-3-(4-(3,3-dimethyl-5-(1H-pyrazol-4-yl)piperazin-1-yl)pyrimidin-2-yl)imidazo[1,2-a]pyrazine] | 100 to 1000 nM | 500 to 5000 nM |
| CC1(C)CN(c2ccnc(-c3cnc4cnc(Br)cn34)n2)CC(c2cn[nH]c2)N1 (stereo not shown) [IV-354, 6-Bromo-3-(4-(3,3-dimethyl-5-(1H-pyrazol-4-yl)piperazin-1-yl)pyrimidin-2-yl)imidazo[1,2-a]pyrazine] | 10 to 100 nM | > 5000 nM |
| Cc1nc(C2CCCN(c3ccnc(-c4cnc5cnc(Br)cn45)n3)C2)c[nH]1 (stereo not shown) [IV-355, 6-Bromo-3-(4-(3-(2-methyl-1H-imidazol-4-yl)piperidin-1-yl)pyrimidin-2-yl)imidazo[1,2-a]pyrazine] | < 10 nM | 500 to 5000 nM |
| OCC1CC(c2cn[nH]c2)CN(c2ccnc(-c3cnc4cnc(C(F)(F)F)cn34)n2)C1 (stereo not shown) [IV-359, (5-(1H-Pyrazol-4-yl)-1-(2-(6-(trifluoromethyl)imidazo[1,2-a]pyrazin-3-yl)pyrimidin-4-yl)piperidin-3-yl)methanol] | < 10 nM | < 500 nM |
| Brc1cn2c(-c3nccc(N4CCCC(c5c[nH]cn5)C4)n3)cnc2cn1 (stereo not shown) [IV-363, 3-(4-(3-(1H-Imidazol-4-yl)piperidin-1-yl)pyrimidin-2-yl)-6-bromoimidazo[1,2-a]pyrazine] | < 10 nM | < 500 nM |
| Brc1cn2c(-c3nccc(N4CCNC(c5cn[nH]c5)C4)n3)cnc2cn1 (stereo not shown) [IV-371, 3-(4-(3-(1H-Pyrazol-4-yl)piperazin-1-yl)pyrimidin-2-yl)-6-bromoimidazo[1,2-a]pyrazine] | 10 to 100 nM | 500 to 5000 nM |
| CC1CN(c2ccnc(-c3cnc4cnc(Br)cn34)n2)C(C)C(c2c[nH]cn2)N1 (stereo not shown) [IV-373, 3-(4-(3-(1H-Imidazol-4-yl)-2,5-dimethylpiperazin-1-yl)pyrimidin-2-yl)-6-bromoimidazo[1,2-a]pyrazine] | < 10 nM | 500 to 5000 nM |
| FC(F)(F)c1cn2c(-c3nccc(N4CCCC(c5cn[nH]n5)C4)n3)cnc2cn1 (stereo not shown) [IV-378, 3-(4-(3-(2H-1,2,3-Triazol-4-yl)piperidin-1-yl)pyrimidin-2-yl)-6-(trifluoromethyl)imidazo[1,2-a]pyrazine] | < 10 nM | < 500 nM |
| CC(C)c1nc(C2CCCN(c3ccnc(-c4cnc5cnc(Br)cn45)n3)C2)c[nH]1 (stereo not shown) [IV-384, 6-Bromo-3-(4-(3-(2-isopropyl-1H-imidazol-4-yl)piperidin-1-yl)pyrimidin-2-yl)imidazo[1,2-a]pyrazine] | 10 to 100 nM | 500 to 5000 nM |
| CC(C)c1nc(C2=CCCN(c3ccnc(-c4cnc5cnc(Br)cn45)n3)C2)c[nH]1 [IV-385, 6-Bromo-3-(4-(5-(2-isopropyl-1H-imidazol-4-yl)-3,6-dihydropyridin-1(2H)-yl)pyrimidin-2-yl)imidazo[1,2-a]pyrazine] | 10 to 100 nM | 500 to 5000 nM |
| OC1(c2cn[nH]c2)CCCN(c2ccnc(-c3cnc4cnc(C(F)(F)F)cn34)n2)C1 (stereo not shown) [IV-386, 3-(1H-Pyrazol-4-yl)-1-(2-(6-(trifluoromethyl)imidazo[1,2-a]pyrazin-3-yl)pyrimidin-4-yl)piperidin-3-ol] | 10 to 100 nM | 500 to 5000 nM |
| CC1C(c2cn[nH]c2)CCCN1c1ccnc(-c2cnc3cnc(C(F)(F)F)cn23)n1 (stereo not shown) [IV-388, 3-(4-(2-Methyl-3-(1H-pyrazol-4-yl)piperidin-1-yl)pyrimidin-2-yl)-6-(trifluoromethyl)imidazo[1,2-a]pyrazine] | < 10 nM | < 500 nM |
| CC1C(c2c[nH]cn2)CCCN1c1ccnc(-c2cnc3cnc(C(F)(F)F)cn23)n1 (stereo not shown) [IV-389, 3-(4-(3-(1H-Imidazol-4-yl)-2-methylpiperidin-1-yl)pyrimidin-2-yl)-6-(trifluoromethyl)imidazo[1,2-a]pyrazine] | < 10 nM | 500 to 5000 nM |
| COC1CC(c2cn[nH]c2)CN(c2ccnc(-c3cnc4cnc(C(F)(F)F)cn34)n2)C1 (stereo not shown) [IV-396, 3-(4-(3-Methoxy-5-(1H-pyrazol-4-yl)piperidin-1-yl)pyrimidin-2-yl)-6-(trifluoromethyl)imidazo[1,2-a]pyrazine] | < 10 nM | 500 to 5000 nM |
| CC1C(c2cn[nH]c2)NCCN1c1ccnc(-c2cnc3cnccn23)n1 (stereo not shown) [IV-397, 3-(4-(2-Methyl-3-(1H-pyrazol-4-yl)piperazin-1-yl)pyrimidin-2-yl)imidazo[1,2-a]pyrazine] | 100 to 1000 nM | > 5000 nM |
| Cc1cn2c(-c3nccc(N4CCNC(c5cn[nH]c5)C4C)n3)cnc2cn1 (stereo not shown) [IV-398, 6-Methyl-3-(4-(2-methyl-3-(1H-pyrazol-4-yl)piperazin-1-yl)pyrimidin-2-yl)imidazo[1,2-a]pyrazine] | 10 to 100 nM | > 5000 nM |
